US6008240A, “2-(1H-4(5)-imidazoyl) cyclopropyl derivatives” (Gliatech, Inc., priority 1997, dated 1999)
Where a name gives a salt, the structure may show the parent alone. Read-outs that look alike come from different tables or passages of the source.

What was measured:
[1] = dose-dependent; species not printed in this sentence (preceding sentence: cat); cited from earlier work
[2] = intraventricular; rabbits; cited from earlier work
[3] = intraventricular; saline and pentobarbital-treated rats; cited from earlier work
H3 = settings: cited from earlier work
H3 receptor = settings: cited from earlier work
Histamine H3 Receptor = biological target: T1, Histamine H3 Receptor (Rattus norvegicus, UniProt Q9QYN8); assay: In Vitro Histamine H3 Receptor Binding Analysis ([3H]-Nα-methylhistamine, rat cortical membranes)
T1 construct: from tissue; host or cells: rat cerebral cortex membranes
T1 sequence (Q9QYN8 whole entry): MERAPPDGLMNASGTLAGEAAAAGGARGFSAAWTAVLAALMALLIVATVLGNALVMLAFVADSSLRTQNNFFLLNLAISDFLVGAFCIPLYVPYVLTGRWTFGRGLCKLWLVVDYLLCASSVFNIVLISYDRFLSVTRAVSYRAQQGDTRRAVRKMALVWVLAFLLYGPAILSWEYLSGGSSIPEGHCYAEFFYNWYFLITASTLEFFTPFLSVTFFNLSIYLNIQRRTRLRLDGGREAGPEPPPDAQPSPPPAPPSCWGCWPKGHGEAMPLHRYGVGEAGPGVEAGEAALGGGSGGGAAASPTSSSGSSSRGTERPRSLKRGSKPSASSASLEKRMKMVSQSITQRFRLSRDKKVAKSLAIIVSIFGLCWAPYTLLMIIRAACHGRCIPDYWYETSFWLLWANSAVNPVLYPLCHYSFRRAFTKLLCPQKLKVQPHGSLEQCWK
Protocol: Histamine H3 receptor affinity was determined in rat cortical membranes using the H3 selective agonist ligand, [^3 H]-N^α -methylhistamine (78.9 Ci/mmole, DuPont NEN Research Products, Boston, Mass.) according to the method of West et al., (1990) Mol. Pharmacol. 38: 610-613 with modifications. Briefly, animals were sacrificed by decapitation and the cerebral cortex was rapidly removed. Rat cortices were mechanically homogenized with an Omni 1000 motor driven homogenizer in 10 volumes (wt/vol) of Krebs-Ringers Hepes buffer (pH 7.4) containing the following protease inhibitors; EDTA (10 mmol), PMSF (0.1 mM), chymostatin (0.2 mg/50 mL) and leupeptin (0.2 mg/50 mL). The homogenate was centrifuged in a Sorvall at ~40,000 x g for 30 min. The pellet was resuspended by mechanical homogenization in 25 mL water and lysed on ice for 30 min. The homogenate was recentrifuged and the membrane lysis was repeated. The membranes were recentrifuged and the final pellet was resuspended in 14 volumes of water to give approximately 200 μg protein/100 μl final concentration. The suspension was stored at -80° C. prior to use. Protein concentrations were determined by Coomassie Plus Protein Assay (Pierce, Rockford, Ill.).
Nonspecific binding (NSB) was accounted for by the inclusion of thioperamide (10 μM). Samples were incubated for 40 minutes at 25° C. The samples were filtered through glass fiber strips, pre-washed with 0.3% polyethyleneimine, using a Brandell cell harvester. The filters were rapidly washed three times with 4 ml of 25 mM Tris buffer containing 145 mM NaCl (pH 7.4, 4° C.). Filters were transferred to polyethylene minivials and counted in 3.5 ml of scintillation fluid (Ecolume, ICN Biomedicals, Inc.). Using this procedure, the non-specific binding was less than 10% of the total binding and the binding to the glass fiber filters was negligible. Saturation and competition experiments were analyzed with the ReceptorFit saturation and competition curve fitting programs (Lundon Software, Inc., Cleveland, Ohio).

[4] = rat cortical membranes, 0.8-1.2 nM [3H]-Nα-methylhistamine, 40 minutes at 25° C., pH 7.4, read-out: H3 Receptor Ki

SMILES	Ki (Histamine H3 Receptor)	Ki (Histamine H3 Receptor; [4])	other results
S=C(NC1CCCCC1)N1CCC(c2cnc[nH]2)CC1 [thioperamide]	–	–	wakefulness [1]: enhanced wakefulness in a dose-dependent fashion
NCCc1c[nH]cn1 [histamine]	–	–	arousal EEG pattern [2]: induces the appearances of an arousal EEG pattern; spontaneous locomotor activity, grooming and exploratory behavior [3]: increased spontaneous locomotor activity, grooming and exploratory behavior
COc1ccc(CC(=NO)C(=O)NCCc2c[nH]cn2)cc1Br	–	–	H3 antagonism on guinea pig ileum (H3): H3 antagonist on guinea pig ileum; activity in an H3 receptor assay (H3 receptor): active in an H3 receptor assay
C[C@@H](NC(=O)[C@@H]1C[C@H]1c1cnc[nH]1)C1CCCCC1 (mixture of isomers) [Example 6, N-[(R)-1-cyclohexylethyl]-3-(1H-imidazol-4-yl)-trans-(2R,3R)-cyclopropanamide and N-[(R)-1-cyclohexylethyl]-3-(1H-imidazol-4-yl)-trans-(2S,3S)-cyclopropanamide hydrochloride]	70 ± 8.6 nM	–	–
c1nc([C@@H]2C[C@H]2COCCCC2CCCCC2)c[nH]1 (racemic) [Example 18, (±)-trans-(3-Cyclohexylpropoxy)(2-imidazol-4-ylcyclopropyl)methane]	–	240 ± 6 nM	–
CC(C)(C)CCC#C[C@@H]1C[C@H]1c1c[nH]cn1 (relative stereo) [Example 38, (±)-4-(2-(5,5-Dimethylhex-1-ynyl)cyclopropyl)imidazole]	–	0.33 ± 0.1 nM	–
N[C@@H](Cc1ccc(Br)cc1)C(=O)N[C@@H]1C[C@H]1c1c[nH]cn1 [Example 45]	–	9.4 ± 1.1 nM	–
O=C(NCC1CCCCC1)[C@@H]1C[C@H]1c1c[nH]cn1 [Example 2b]	–	176 ± 9 nM	–
CC1CCCCN1CCCNC(=O)[C@@H]1C[C@H]1c1c[nH]cn1 (relative stereo) [Example 3, (±)-trans-(2-imidazol-4-ylcyclopropyl)-N-(3-((±)-2-methylpiperidyl)propyl)formamide]	–	659 ± 52 nM	–
O=C(N[C@@H]1C[C@H]1c1cnc[nH]1)OCc1cccc(Br)c1 (relative stereo) [Example 51, (±)-trans-((3-Bromophenyl)methoxy)-N-(2-imidazol-4-ylcyclopropyl) formamide]	9.9 ± 0.35 nM	–	–
COC(=O)/C=C\[C@@H]1C[C@H]1c1cnc[nH]1 (relative stereo) [Example 53, (±) trans-Methyl-3-(2-imidazol-4-ylcyclopropyl)prop-2-enoate]	21.6 ± 3.6 nM	–	–
C(=C/[C@@H]1C[C@H]1c1c[nH]cn1)/CCC1CCCCC1 [Example 23, (1R, 2R)-trans-4-(2-(4-Cyclohexylbut-cis-1-enyl)cyclopropyl)imidazole]	6.2 ± 0.8 nM	–	–
CC(C)CCC#C[C@@H]1C[C@H]1c1cnc[nH]1 (relative stereo) [Example 40, (±)-4-(2-(5-Methylhex-1-ynyl)cyclopropyl)imidazole]	6.5 ± 1.5 nM	–	–
N[C@@H](CC1CCCCC1)C(=O)N[C@@H]1C[C@H]1c1cnc[nH]1 [Example 12, (1R,2R)-trans-2-(S)-amino-3-cyclohexyl-N-(2-imidazol-4-ylcyclopropyl)propanamide]	1.85 ± 0.5 nM	–	–
O=C(N[C@@H]1C[C@H]1c1c[nH]cn1)OCCC1CCCCC1 (relative stereo) [Example 46, (±)-trans-(Cyclohexylethoxy)-N-(2-imidazol-4-cyclopropyl) formamide]	29 ± 1.2 nM	–	–
CC(C)(C)CCC#C[C@@H]1C[C@H]1c1c[nH]cn1 [Example 39, (1R,2R)-4-(2-(5,5-Dimethylhex-1-ynyl)cyclopropyl)imidazole]	–	0.15 ± 0.04 nM	–
O=C(N[C@@H]1C[C@H]1c1c[nH]cn1)OCc1ccccc1 (relative stereo) [Example 26, (±)-trans-N-(2-imidazol-4-ylcyclopropyl)(phenylmethoxy)formamide]	5.8 ± 0.4 nM	–	–
O=C(NCCCc1ccccc1)[C@@H]1C[C@H]1c1c[nH]cn1 (relative stereo) [Example 33, (±)-trans-(2-imidazol-4-ylcyclopropyl)-N-(3-phenylpropyl) formamide]	–	197 ± 23 nM	–
O=C(NCCC1CCCCC1)C1CC1c1c[nH]cn1 [Example 27, (1S, 2S)-trans-N-(2-Cyclohexylethyl)(2-imidazol-4-ylcyclopropyl)formamide]	–	8.8 ± 0.1 nM	–
C(=C\[C@H]1C[C@@H]1c1c[nH]cn1)/CCC1CCCCC1 [Example 25, (1S, 2S)-trans-4-(2-(4-Cyclohexylbut-trans-1-enyl)cyclopropyl)imidazole]	56 ± 9 nM	–	–
